In data set [1] the test system is NT4 (NT4-biotin captured on streptavidin CM5 chip). Put plainly: SPR, synthetic sulfated oligosaccharides injected over immobilized NT4. The format is binding. The following applies: for oligosaccharide binding to immobilized NT4 (in words): oligosaccharide 100 μg/ml (Figure 4E); for Kd (koff) / Ka (Kon) / Kd: immobilized NT4-biotin, HBS-EP+ pH 7.4, 1:1 Langmuir model, oligosaccharide as analyte; for Kd (koff): dissociation rate. An excerpt:
Eight-mer and nine-mer oligosaccharides S00 (GlcNAc-GlcA)4 α-paranitrophenyl, S04 (GlcNS-GlcA)4 α-paranitrophenyl, S06a (GlcA-GlcNS)2-(GlcA-GlcNS,6S)2-GlcA α-paranitrophenyl (9-mer), and S06b GlcNS-GlcA-GlcNS-IdoA,2S-GlcNS-IdoA,2S-GlcNS-GlcA α-paranitrophenyl were purchased from Iduron. In all oligosaccharides, the units were linked together by α (1–4) bonds only and carry a paranitrophenyl group. S12 (ΔHexA,2S α1-4 GlcNS,6S)3 (9-mer) was from Amsbio, and its first glycoside is unsaturated.
(§1) NT4-biotin was captured on a CM5 sensor chip where streptavidin had previously been immobilized by standard amine coupling. Briefly, the sensor chip surface was activated with a mixture of 0.1 M 1-ethyl-3(3-dimethylaminopropyl)-carbodiimide (EDC) and 0.4 M N-hydroxyl succinimide (NHS) for 7 min at a flow rate of 5 μl/min. Streptavidin was injected over the surface for 7 min, and finally, 1 M ethanolamine pH 8.5 was used to block any activated carboxyl groups. NT4-biotin, diluted in HBS-EP+ (Hepes 10 mM, NaCl 150 mM, EDTA 3.4 mM, 0.05% p20, pH 7.4) to 30 μg/ml, was injected for 2 min at a flow rate of 10 μl/min.
(§2) HSPG and oligosaccharides were diluted to different concentrations in HBS-EP+ and then injected over immobilized NT4 peptides. The sensor chip surface was regenerated with a short pulse of 10 mM NaOH/0.5 M NaCl 5 min after the end of the injections.
(§3) Kinetics were analyzed with the Biacore T100 evaluation 1.1.1 software using the 1:1 Langmuir model to fit the curves.
On the technique in general: SPR reads the build-up and loss of mass on a sensor chip optically.

Another data set concerns living cells. The settings on record: after 24 h; mass spectrometry; ref [14]; cited from earlier work.
The subject of another data set is cancer cell lines. The following applies: confocal microscopy, 37°C; "completely internalized only after 2 h"; ref [14], [16]; cited from earlier work.
Data set [2] concerns NT4 (NT4-biotin captured on streptavidin CM5 chip). Put plainly: SPR, rHSPG injected over immobilized NT4 (Biacore T100). The format is binding. The following applies: for Ka (Kon): HBS-EP+ (Hepes 10 mM, NaCl 150 mM, EDTA 3.4 mM, 0.05% p20, pH 7.4), 1:1 Langmuir model, full-length recombinant human HSPG as analyte; for Kd (koff) / Kd: HBS-EP+ pH 7.4, 1:1 Langmuir model, rHSPG as analyte; for Kd (koff): dissociation rate. On the procedure:
Experiments were performed on a Biacore T100 instrument (GE Healthcare). All materials were purchased from GE Healthcare unless otherwise specified. Full-length recombinant human HSPG were purchased from R&D Systems. Syndecan-3, syndecan-4, and glypican-3 were obtained from the mouse myeloma cell line (NS0), and glypican-4 was obtained from the Chinese Hamster Ovary cell line. The activity of syndecan-4, glypican-3, and glypican-4 was measured by the supplier as the ability of the immobilized protein to bind FGF-basic. The activity of syndecan-3 was measured by the supplier as the ability of the immobilized protein to inhibit adhesion of Saos-2 human osteosarcoma cells to human fibronectin.
as §1, §2, §3

Data set [3] deals with recombinant human glypican-3 (human, UniProt P51654 25-580). The experiment in a line: SPR; Biacore T100; NT4-biotin captured on streptavidin on a CM5 chip; HSPG diluted in HBS-EP+ (Hepes 10 mM, NaCl 150 mM, EDTA 3.4 mM, 0.05% p20, pH 7.4) injected over it; 1:1 Langmuir model. The following applies: both partners purified.
Data set [4] addresses recombinant human syndecan-4 (human, UniProt P31431 19-198). The description is as above. The following applies: both partners purified.
The target of data set [5] is T1, recombinant human glypican-4 (human, UniProt O75487 19-529).
T1 construct: also called GPC4; rHSPG; source: bought: R&D Systems; from the Chinese Hamster Ovary cell line
T1 sequence (looked up): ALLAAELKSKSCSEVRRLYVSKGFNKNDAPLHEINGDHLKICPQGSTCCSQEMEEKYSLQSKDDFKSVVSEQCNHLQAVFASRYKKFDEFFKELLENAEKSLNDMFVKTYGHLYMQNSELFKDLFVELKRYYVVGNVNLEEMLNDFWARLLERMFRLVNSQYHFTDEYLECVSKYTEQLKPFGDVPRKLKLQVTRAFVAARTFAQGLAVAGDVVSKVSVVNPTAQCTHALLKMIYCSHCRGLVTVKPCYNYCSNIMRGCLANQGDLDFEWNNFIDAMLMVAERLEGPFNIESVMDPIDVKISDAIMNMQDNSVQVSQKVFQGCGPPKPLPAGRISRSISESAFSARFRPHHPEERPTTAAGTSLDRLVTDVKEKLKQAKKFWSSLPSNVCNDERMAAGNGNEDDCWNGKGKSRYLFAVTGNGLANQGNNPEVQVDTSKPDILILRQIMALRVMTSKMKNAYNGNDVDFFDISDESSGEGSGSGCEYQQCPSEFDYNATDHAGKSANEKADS
Described as above. The settings on record: both partners purified.

The source of these data is paper PMC6759624, “Unraveling Heparan Sulfate Proteoglycan Binding Motif for Cancer Cell Selectivity” (Frontiers in Oncology, 2019).

For the molecule (GlcNS-GlcA)4 α-paranitrophenyl [S04], in data set [1], the “oligosaccharide binding to immobilized NT4 (in words)” value (“oligosaccharide binding” for short) is listed as “almost total loss of binding”.

Take “(pyELYENKPRRPYIL)4K2K-PEG12-K(biotin) [NT4-biotin]”: the “stability on degradation by living cells” value in the data set on living cells is on record as “still stable after 24 h”. In the data set on cancer cell lines, the “time to complete internalization” value was 2 h.

“Glypican-3: full-length recombinant human HSPG from mouse myeloma cell line (NS0), R&D Systems”: in data set [2], the “Ka (Kon)” value was 23920 M⁻¹ s⁻¹; the “Kd (koff)” value came to 0.001433 s⁻¹; the Kd (commonly the free concentration of one partner at which half of the binding sites on the other are occupied at equilibrium, for simple one-to-one binding) came out at 59.9 nM.

As to “(GlcA-GlcNS)2-(GlcA-GlcNS,6S)2-GlcA α-paranitrophenyl [S06a]”, in data set [1], the “Kd (koff)” value stood at 0.002575 s⁻¹, the “Ka (Kon)” value stood at 1060 M⁻¹ s⁻¹, the dissociation constant (Kd) came out at 2430 nM and the “oligosaccharide binding” value is “bound NT4 better”.

As for “GlcNS-GlcA-GlcNS-IdoA,2S-GlcNS-IdoA,2S-GlcNS-GlcA α-paranitrophenyl [S06b]”, in data set [1], the “Kd (koff)” value stood at 0.004039 s⁻¹; the “Ka (Kon)” value came out at 1490 M⁻¹ s⁻¹; the affinity, expressed as Kd, was 2700 nM.

Consider (ΔHexA,2S α1-4 GlcNS,6S)3 [S12], for which, in data set [1], the “Kd (koff)” value worked out at 0.0009126 s⁻¹, the “Ka (Kon)” value was 3530 M⁻¹ s⁻¹, the Kd was 258 nM and the “oligosaccharide binding” value is recorded as “best-binding oligosaccharide”.

B1: Syndecan-4: full-length recombinant human HSPG from mouse myeloma cell line (NS0), R&D Systems (protein)
chain: ESIRETEVIDPQDLLEGRYFSGALPDDEDVVGPGQESDDFELSGSGDLDDLEDSMIGPEVVHPLVPLDNHIPERAGSGSQVPTEPKKLEENEVIPKRISPVEESEDVSNKVSMSSTVQGSNIFERTEVLAALIVGGIVGILFAVFLILLLMYRMKKKDEGSYDLGKKPIYKKAPTNEFYA
Regarding B1, in data set [2], the “Ka (Kon)” value turned out to be 9010 M⁻¹ s⁻¹, the “Kd (koff)” value turned out to be 0.002316 s⁻¹ and the Kd stood at 257 nM.

B2: Glypican-4: full-length recombinant human HSPG from Chinese Hamster Ovary cell line, R&D Systems (protein)
chain: T1 sequence (looked up)
In the case of B2, in data set [2], the “Ka (Kon)” value is 8710 M⁻¹ s⁻¹, the “Kd (koff)” value is 0.0006719 s⁻¹ and the Kd was determined as 77.1 nM.

B3: NT4-biotin (pyELYENKPRRPYIL)4K2K-PEG12-K(biotin) (peptide)
peptide: ELYENKPRRPYIL
modifications: pyroglutamate at position 1 (pyE); the four arms are built on a branching core of lysines, K2K-PEG12-K(biotin)
notes: the 13-amino-acid arm of the tetrabranched peptide; the first letter is pyroglutamate (printed pyE); Tetrabranched: four copies of the arm joined by their C-termini to the amines of a three-lysine core (K2K), followed by PEG12 and Lys(biotin); The core is not written as a chain; also called NT4 peptide; NT4 conjugated with biotin; source: synthetic peptide (Fmoc chemistry, HPLC purified); not …
For B3, in data set [3], the Kd came out at 59.9 nM, the koff (commonly the first-order rate constant of dissociation) came to 0.00143 s⁻¹ and the kon (usually the second-order rate constant of association) was 23900 M⁻¹ s⁻¹. In data set [4], the Kd is 257 nM, the koff stood at 0.00232 s⁻¹ and the kon stood at 9010 M⁻¹ s⁻¹. In addition, in data set [5], the dissociation constant Kd came out at 77.1 nM, the koff was 0.000672 s⁻¹ and the kon was found to be 8710 M⁻¹ s⁻¹.
